The record followed here is BindingDB's records for doi:10.1038/nchembio.137 (University of Texas Southwestern Medical Center, 2009).

The target in this assay is T1, Protein Wnt-2 (Mus musculus, UniProt P21552).
T1 sequence (P21552 whole entry): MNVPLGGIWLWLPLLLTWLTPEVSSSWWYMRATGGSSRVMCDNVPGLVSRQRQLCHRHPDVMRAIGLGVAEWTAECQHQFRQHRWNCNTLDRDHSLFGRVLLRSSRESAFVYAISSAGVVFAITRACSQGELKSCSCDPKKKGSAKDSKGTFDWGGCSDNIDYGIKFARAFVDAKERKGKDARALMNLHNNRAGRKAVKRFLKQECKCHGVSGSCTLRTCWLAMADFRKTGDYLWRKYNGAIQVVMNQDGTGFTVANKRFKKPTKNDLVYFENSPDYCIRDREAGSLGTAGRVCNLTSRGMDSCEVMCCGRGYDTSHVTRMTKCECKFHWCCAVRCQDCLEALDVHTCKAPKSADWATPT
Nature of the assay: Wnt Inhibition Assay. The settings on record: pH 7.4; 4 °C. The text has this: Inhibition assay of Wnt response treated with exogenously supplied of Wnt protein ('exogenous Wnt' test)

As usually defined, the IC50 is the midpoint of a concentration-inhibition curve. In turn, `Cc1cccc2nc(Cn3c(=O)n(C[C@H]4CC[C@H](C(=O)NCc5ccccc5)CC4)c(=O)c4ccccc43)cc(=O)n12` [CID15995771] had an IC50 of 40 nM.
With `Cc1ccnc2c(NC(=O)c3ccc(-n4c(O)c5c(c4O)[C@H]4C=C[C@@H]5C4)cc3)cccc12` [CID25093486], 27 nM corresponded to half-maximal inhibition (IC50). This IC50 and that of the compound before are within 1.5-fold of each other.
With `N#Cc1ccccc1Cn1c(=O)n(C[C@H]2CC[C@H](C(=O)NCc3ccccc3)CC2)c(=O)c2ccccc21` [CID15993586], the concentration for half-maximal inhibition (IC50) was 25 nM.
For `O=C(Nc1cccc2cccnc12)c1ccc(-n2c(O)c3c(c2O)[C@H]2C=C[C@@H]3C2)cc1`, the half-inhibitory concentration (IC50) is 58 nM.
